The source of these data is patent US12139520B2 (priority 2020, dated 2024).

What is called EC50 is the concentration giving half of the maximal effect.

One series deals with T1, hAMY3 receptor (Homo sapiens, UniProt O60896+P30988).
T1 sequence (P30988 25-474): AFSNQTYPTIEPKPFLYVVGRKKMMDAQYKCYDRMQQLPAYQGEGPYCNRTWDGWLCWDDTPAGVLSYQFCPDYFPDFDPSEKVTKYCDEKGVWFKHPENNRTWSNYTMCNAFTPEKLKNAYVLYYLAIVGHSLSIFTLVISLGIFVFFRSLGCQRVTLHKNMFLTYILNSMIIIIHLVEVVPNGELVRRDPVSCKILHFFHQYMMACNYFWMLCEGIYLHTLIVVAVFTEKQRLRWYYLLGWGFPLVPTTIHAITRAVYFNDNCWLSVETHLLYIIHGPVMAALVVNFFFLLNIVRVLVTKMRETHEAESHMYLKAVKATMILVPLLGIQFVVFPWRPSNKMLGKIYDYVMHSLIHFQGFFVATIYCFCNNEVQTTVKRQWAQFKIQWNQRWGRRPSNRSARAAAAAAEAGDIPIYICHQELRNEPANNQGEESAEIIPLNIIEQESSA
T1 sequence (O60896 24-148 partner): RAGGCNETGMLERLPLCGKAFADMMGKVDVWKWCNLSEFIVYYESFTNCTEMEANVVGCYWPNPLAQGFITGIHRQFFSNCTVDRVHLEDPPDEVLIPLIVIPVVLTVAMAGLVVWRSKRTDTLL
Briefly: cAMP assay for in vitro receptor activation, hAMY3-R. In kind it is cell-based. As to conditions: cAMP assay, hAMY3 receptor; read-out: hAMY3R EC50. The method in brief: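 Receptor activation was measured as cAMP accumulation in a monoclonal cell line stably overexpressing hAMY3. Stimulation with graded doses lasted 30 min at room temperature in the presence of 0.5 mM IBMX, with human amylin as positive control.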
In general terms: Cyclic AMP is a second messenger, typically raised through Gs and lowered through Gi signalling.

Series [1] is described as follows: Physical stability of peptide analogues (Thioflavin T fibrillation). In kind it is physicochemical. As to conditions: maximum ThT signal normalized between hAMY maximum and buffer background; 40° C., shaking, four days; pH 7 per table title. In short, it runs like this: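 Maximum ThT emission at 480 nm, after LOESS smoothing, is given as percent of the span from buffer background to hAMY. Conditions: 50 mM buffer at pH 4 or 7, 4 μM dye, 40 °C, repeated shaking, readings every 10 min for four days.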

Bridge positions count the residues as written; N and C are the ends. Square brackets hold non-standard residues; d marks the D form. Peptide text beside a SMILES is read from it. Hyp = O=C(O)[C@@H]1C[C@@H](O)CN1; Cit = NC(=O)NCCC[C@H](N)C(=O)O

Turning to `CC[C@H](C)[C@H](NC(=O)[C@H](CCC(N)=O)NC(=O)[C@H](Cc1c[nH]cn1)NC(=O)[C@H](C)NC(=O)[C@H](CC(C)C)NC(=O)[C@H](CCCNC(N)=O)NC(=O)[C@H](CCC(N)=O)NC(=O)[C@@H](NC(=O)[C@@H](NC(=O)[C@@H]1CSSC[C@H](NC(=O)CN)C(=O)N[C@@H](CCCNC(=N)N)C(=O)N[C@@H](Cc2ccccc2)C(=O)NCC(=O)N[C@@H]([C@@H](C)O)C(=O)N1)[C@@H](C)O)C(C)C)C(=O)N[C@@H](Cc1ccc(O)cc1)C(=O)N[C@@H](CCC(N)=O)C(=O)N[C@@H](Cc1ccccc1)C(=O)N[C@H](C(=O)N[C@@H](CC(=O)O)C(=O)N[C@@H](CCCCN)C(=O)N[C@@H](CC(=O)O)C(=O)N[C@@H](CCCCN)C(=O)N[C@@H](CC(=O)O)C(=O)N[C@@H](CC(N)=O)C(=O)N[C@H](C(=O)N[C@@H](C)C(=O)N1CCC[C@H]1C(=O)N[C@@H](CCCNC(=N)N)C(=O)N[C@@H](CO)C(=O)N[C@@H](CC(N)=O)C(=O)N[C@H](C(=O)N[C@@H](CO)C(=O)N1CCC[C@H]1C(=O)N[C@@H](CCC(N)=O)C(=O)NCC(=O)N[C@@H](Cc1ccc(O)cc1)C(N)=O)C(C)C)C(C)C)[C@@H](C)O` [compound 286] (H-GCRFGTCTVQ[Cit]LAHQIYQFTDKDKDNVAPRSNVSPQGY-NH2; disulfide 2-7; N-terminus assumed), the EC50 on hAMY3 receptor came to 0.025 nM. The “Max ThT signal (%)” value in series [1] came out at 2.900%.

In the case of `CC[C@H](C)[C@H](NC(=O)[C@H](CCC(N)=O)NC(=O)[C@H](Cc1c[nH]cn1)NC(=O)[C@H](C)NC(=O)[C@H](CC(C)C)NC(=O)[C@H](CCCNC(N)=O)NC(=O)[C@H](CCC(N)=O)NC(=O)[C@@H](NC(=O)[C@@H](NC(=O)[C@@H]1CSSC[C@H](NC(=O)CN)C(=O)N[C@@H](CCCNC(=N)N)C(=O)N[C@@H](Cc2ccccc2)C(=O)NCC(=O)N[C@@H]([C@@H](C)O)C(=O)N1)[C@@H](C)O)C(C)C)C(=O)N[C@@H](Cc1ccc(O)cc1)C(=O)N[C@@H](CCC(N)=O)C(=O)N[C@@H](Cc1ccccc1)C(=O)N[C@H](C(=O)N[C@@H](CC(=O)O)C(=O)N[C@@H](CCCCN)C(=O)N[C@@H](CC(=O)O)C(=O)N[C@@H](CCCCN)C(=O)N[C@@H](CC(=O)O)C(=O)N[C@@H](CC(N)=O)C(=O)N[C@H](C(=O)N[C@@H](C)C(=O)N1CCC[C@H]1C(=O)N[C@@H](CCCNC(=N)N)C(=O)N[C@@H](CO)C(=O)N[C@@H](CC(N)=O)C(=O)N[C@H](C(=O)NCC(=O)N1CCC[C@H]1C(=O)N[C@@H](CCC(N)=O)C(=O)NCC(=O)N1C[C@H](O)C[C@H]1C(N)=O)C(C)C)C(C)C)[C@@H](C)O` [compound 289] (H-GCRFGTCTVQ[Cit]LAHQIYQFTDKDKDNVAPRSNVGPQG[Hyp]-NH2; disulfide 2-7; N-terminus assumed), the EC50 at hAMY3 receptor is 0.005 nM. In addition, in series [1], the “Max ThT signal (%)” value worked out at 21.150%.

As to `CC[C@H](C)[C@H](NC(=O)[C@H](CCC(N)=O)NC(=O)[C@H](Cc1c[nH]cn1)NC(=O)[C@H](C)NC(=O)[C@H](CC(C)C)NC(=O)[C@H](CCCNC(N)=O)NC(=O)[C@H](CCC(N)=O)NC(=O)[C@@H](NC(=O)[C@@H](NC(=O)[C@@H]1CSSC[C@H](NC(=O)CN)C(=O)N[C@@H](CCCNC(=N)N)C(=O)N[C@@H]([C@@H](C)O)C(=O)NCC(=O)N[C@@H]([C@@H](C)O)C(=O)N1)[C@@H](C)O)C(C)C)C(=O)N[C@@H](Cc1ccc(O)cc1)C(=O)N[C@@H](CCC(N)=O)C(=O)N[C@@H](Cc1ccccc1)C(=O)N[C@H](C(=O)N[C@@H](CC(=O)O)C(=O)N[C@@H](CCCCN)C(=O)N[C@@H](CC(=O)O)C(=O)N[C@@H](CCCCN)C(=O)N[C@@H](CC(=O)O)C(=O)N[C@@H](CC(N)=O)C(=O)N[C@H](C(=O)N[C@@H](C)C(=O)N1CCC[C@H]1C(=O)N[C@@H](CCCNC(=N)N)C(=O)N[C@H](C(=O)N[C@@H](CC(N)=O)C(=O)N[C@H](C(=O)N[C@@H](CO)C(=O)N1CCC[C@H]1C(=O)N[C@@H](CC(N)=O)C(=O)NCC(=O)N1C[C@H](O)C[C@H]1C(N)=O)C(C)C)[C@@H](C)O)C(C)C)[C@@H](C)O` [compound 302] (H-GCRTGTCTVQ[Cit]LAHQIYQFTDKDKDNVAPRTNVSPNG[Hyp]-NH2; disulfide 2-7; N-terminus assumed), on hAMY3 receptor, the EC50 was 0.071 nM. Also, in series [1], the “Max ThT signal (%)” value is listed as 24.250%.

For the molecule `CC[C@H](C)[C@H](NC(=O)[C@H](CCC(N)=O)NC(=O)[C@H](Cc1c[nH]cn1)NC(=O)[C@H](C)NC(=O)[C@H](CC(C)C)NC(=O)[C@H](Cc1c[nH]c2ccccc12)NC(=O)[C@H](CCC(N)=O)NC(=O)[C@@H](NC(=O)[C@@H](NC(=O)[C@@H]1CSSC[C@H](NC(=O)CN)C(=O)N[C@@H](CCCNC(=N)N)C(=O)N[C@@H](Cc2ccccc2)C(=O)NCC(=O)N[C@@H]([C@@H](C)O)C(=O)N1)[C@@H](C)O)C(C)C)C(=O)N[C@@H](Cc1ccc(O)cc1)C(=O)N[C@@H](CCC(N)=O)C(=O)N[C@@H](Cc1ccccc1)C(=O)N[C@H](C(=O)N[C@@H](CC(=O)O)C(=O)N[C@@H](CCCCN)C(=O)N[C@@H](CC(=O)O)C(=O)N[C@@H](CCCCN)C(=O)N[C@@H](CC(=O)O)C(=O)N[C@@H](CC(N)=O)C(=O)N[C@H](C(=O)N[C@@H](C)C(=O)N1CCC[C@H]1C(=O)N[C@@H](CCCNC(=N)N)C(=O)N[C@H](C(=O)N[C@@H](CCCCN)C(=O)N[C@H](C(=O)NCC(=O)N1CCC[C@H]1C(=O)N[C@@H](CCC(N)=O)C(=O)NCC(=O)N1C[C@H](O)C[C@H]1C(N)=O)C(C)C)[C@@H](C)O)C(C)C)[C@@H](C)O` [compound 322] (H-GCRFGTCTVQWLAHQIYQFTDKDKDNVAPRTKVGPQG[Hyp]-NH2; disulfide 2-7; N-terminus assumed), the EC50 at hAMY3 receptor amounted to 0.014 nM. For the same molecule, the “Max ThT signal (%)” value in series [1] was found to be 18.400%.

For `CC[C@H](C)[C@H](NC(=O)[C@H](CC(N)=O)NC(=O)[C@@H](NC(=O)[C@H](CCCNC(=N)N)NC(=O)[C@@H]1CCCN1C(=O)[C@H](C)NC(=O)[C@@H](NC(=O)[C@H](CC(N)=O)NC(=O)[C@H](CC(=O)O)NC(=O)[C@H](CCCCN)NC(=O)[C@H](CC(=O)O)NC(=O)[C@H](CCCCN)NC(=O)[C@H](CC(=O)O)NC(=O)[C@@H](NC(=O)[C@H](Cc1ccccc1)NC(=O)[C@H](CCC(N)=O)NC(=O)[C@H](Cc1ccc(O)cc1)NC(=O)[C@@H](NC(=O)[C@H](CCC(N)=O)NC(=O)[C@H](Cc1c[nH]cn1)NC(=O)[C@H](C)NC(=O)[C@H](CC(C)C)NC(=O)[C@H](Cc1c[nH]c2ccccc12)NC(=O)[C@H](CCC(N)=O)NC(=O)[C@@H](NC(=O)[C@@H](NC(=O)[C@@H]1CSSC[C@H](NC(=O)CN)C(=O)N[C@@H](CCCNC(=N)N)C(=O)N[C@@H](Cc2ccccc2)C(=O)NCC(=O)N[C@@H]([C@@H](C)O)C(=O)N1)[C@@H](C)O)C(C)C)[C@@H](C)CC)[C@@H](C)O)C(C)C)[C@@H](C)O)C(=O)NCC(=O)N1CCC[C@H]1C(=O)N[C@@H](CC(N)=O)C(=O)NCC(=O)N1C[C@H](O)C[C@H]1C(N)=O` [compound 331] (H-GCRFGTCTVQWLAHQIYQFTDKDKDNVAPRTNIGPNG[Hyp]-NH2; disulfide 2-7; N-terminus assumed), the EC50 at hAMY3 receptor stood at 0.006 nM. For the same molecule, the “Max ThT signal (%)” value in series [1] turned out to be 21.150%.

For the molecule `CC[C@H](C)[C@H](NC(=O)[C@H](CCCCN)NC(=O)[C@@H](NC(=O)[C@H](CCCNC(=N)N)NC(=O)[C@@H]1CCCN1C(=O)[C@H](C)NC(=O)[C@@H](NC(=O)[C@H](CC(N)=O)NC(=O)[C@H](CC(=O)O)NC(=O)[C@H](CCCCN)NC(=O)[C@H](CC(=O)O)NC(=O)[C@H](CCCCN)NC(=O)[C@H](CC(=O)O)NC(=O)[C@@H](NC(=O)[C@H](Cc1ccccc1)NC(=O)[C@H](CCC(N)=O)NC(=O)[C@H](Cc1ccc(O)cc1)NC(=O)[C@@H](NC(=O)[C@H](CCC(N)=O)NC(=O)[C@H](Cc1c[nH]cn1)NC(=O)[C@H](C)NC(=O)[C@H](CC(C)C)NC(=O)[C@H](Cc1c[nH]c2ccccc12)NC(=O)[C@H](CCC(N)=O)NC(=O)[C@@H](NC(=O)[C@@H](NC(=O)[C@@H]1CSSC[C@H](NC(=O)CN)C(=O)N[C@@H](CCCNC(=N)N)C(=O)N[C@@H](Cc2ccccc2)C(=O)NCC(=O)N[C@@H]([C@@H](C)O)C(=O)N1)[C@@H](C)O)C(C)C)[C@@H](C)CC)[C@@H](C)O)C(C)C)[C@@H](C)O)C(=O)NCC(=O)N1CCC[C@H]1C(=O)N[C@@H](CCC(N)=O)C(=O)NCC(=O)N1C[C@H](O)C[C@H]1C(N)=O` [compound 336] (H-GCRFGTCTVQWLAHQIYQFTDKDKDNVAPRTKIGPQG[Hyp]-NH2; disulfide 2-7; N-terminus assumed), at hAMY3 receptor, the EC50 is 0.029 nM. Also, the “Max ThT signal (%)” value in series [1] amounted to 18.700%.
